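Here, GI50 denotes the concentration required for 50% inhibition of growth. At the TGI there is no net growth.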
Columns and labels:
Experiment in all cases: NCI anticancer screen, dose series, 384-well format
COLO 205 colon = system: COLO 205 colon
BT-549 breast = system: BT-549 breast
HOP-92 NSCLC = system: HOP-92 NSCLC
SK-MEL-5 melanoma = system: SK-MEL-5 melanoma
CAKI-1 renal = system: CAKI-1 renal
OVCAR-8 ovarian = system: OVCAR-8 ovarian
T-47D breast = system: T-47D breast
SK-MEL-2 melanoma = system: SK-MEL-2 melanoma
NCI/ADR-RES ovarian = system: NCI/ADR-RES ovarian
NCI-H460 NSCLC = system: NCI-H460 NSCLC
LOX IMVI melanoma = system: LOX IMVI melanoma
A549 NSCLC = system: A549 NSCLC
HT29 colon = system: HT29 colon
SF-295 CNS = system: SF-295 CNS
EKVX NSCLC = system: EKVX NSCLC
IGROV1 ovarian = system: IGROV1 ovarian
MDA-MB-435 melanoma = system: MDA-MB-435 melanoma
NCI-H522 lung = system: NCI-H522 lung
RXF 393 renal = system: RXF 393 renal
NCI-H322M lung = system: NCI-H322M lung
786-0 renal = system: 786-0 renal
OVCAR-4 ovarian = system: OVCAR-4 ovarian
NCI-H226 lung = system: NCI-H226 lung
MDA-MB-231 breast = system: MDA-MB-231 breast
MALME-3M melanoma = system: MALME-3M melanoma
U251 glioblastoma = system: U251 glioblastoma
HCT-15 colon = system: HCT-15 colon
SF-539 CNS = system: SF-539 CNS
HCC-2998 colon = system: HCC-2998 colon
K-562 leukemia = system: K-562 leukemia
ACHN renal = system: ACHN renal
KM12 colon = system: KM12 colon
TK-10 renal = system: TK-10 renal
MDA-MB-468 breast = system: MDA-MB-468 breast
HS 578T breast = system: HS 578T breast
UACC-62 melanoma = system: UACC-62 melanoma
A498 renal = system: A498 renal
CCRF-CEM leukemia = system: CCRF-CEM leukemia
SNB-19 CNS = system: SNB-19 CNS
HCT-116 colon = system: HCT-116 colon
OVCAR-3 ovarian = system: OVCAR-3 ovarian
M14 melanoma = system: M14 melanoma
OVCAR-5 ovarian = system: OVCAR-5 ovarian
SW-620 colon = system: SW-620 colon
UO-31 renal = system: UO-31 renal
PC-3 prostate = system: PC-3 prostate
MCF7 breast = system: MCF7 breast
SK-OV-3 ovarian = system: SK-OV-3 ovarian
SF-268 CNS = system: SF-268 CNS
UACC-257 melanoma = system: UACC-257 melanoma
RPMI-8226 leukemia = system: RPMI-8226 leukemia
SK-MEL-28 melanoma = system: SK-MEL-28 melanoma
HOP-62 NSCLC = system: HOP-62 NSCLC
HL-60(TB) leukemia = system: HL-60(TB) leukemia
MOLT-4 leukemia = system: MOLT-4 leukemia
SN12C renal = system: SN12C renal
NCI-H23 lung = system: NCI-H23 lung
DU-145 prostate = system: DU-145 prostate

Cc1noc(C)c1-c1cnc2c(-c3ccc(C(=O)O)cc3)cn([C@@H](C)c3ccccn3)c2c1
GI50 (COLO 205 colon): 418 nM | TGI (COLO 205 colon): 6010 nM | GI50 (BT-549 breast): 60.1 nM | TGI (BT-549 breast): 761 nM | GI50 (HOP-92 NSCLC): 188 nM | TGI (HOP-92 NSCLC): 39400 nM | GI50 (SK-MEL-5 melanoma): 61.6 nM | TGI (SK-MEL-5 melanoma): 3080 nM | TGI (CAKI-1 renal): 3460 nM | GI50 (OVCAR-8 ovarian): 234 nM | TGI (OVCAR-8 ovarian): 2390 nM | GI50 (T-47D breast): 201 nM | TGI (T-47D breast): 3310 nM | GI50 (SK-MEL-2 melanoma): 46.4 nM | TGI (SK-MEL-2 melanoma): 14000 nM | GI50 (NCI/ADR-RES ovarian): 1180 nM | TGI (NCI/ADR-RES ovarian): 17200 nM | GI50 (NCI-H460 NSCLC): 3170 nM | TGI (NCI-H460 NSCLC): > 100000 nM | GI50 (LOX IMVI melanoma): 144 nM | TGI (LOX IMVI melanoma): 381 nM | GI50 (A549 NSCLC): 755 nM | TGI (A549 NSCLC): > 100000 nM | GI50 (HT29 colon): 301 nM | TGI (HT29 colon): > 100000 nM | GI50 (SF-295 CNS): 1460 nM | TGI (SF-295 CNS): 28900 nM | GI50 (EKVX NSCLC): 2950 nM | TGI (EKVX NSCLC): > 100000 nM | GI50 (IGROV1 ovarian): 78.7 nM | TGI (IGROV1 ovarian): 1980 nM | GI50 (MDA-MB-435 melanoma): 805 nM | TGI (MDA-MB-435 melanoma): > 100000 nM | GI50 (NCI-H522 lung): 15 nM | TGI (NCI-H522 lung): 391 nM | GI50 (RXF 393 renal): 254 nM | TGI (RXF 393 renal): 1290 nM | GI50 (NCI-H322M lung): 619 nM | TGI (NCI-H322M lung): 58400 nM | GI50 ([…]-0 renal): 147 nM | TGI (786-0 renal): 9250 nM | GI50 (OVCAR-4 ovarian): 167 nM | TGI (OVCAR-4 ovarian): 739 nM | GI50 (NCI-H226 lung): 406 nM | TGI (NCI-H226 lung): 7350 nM | GI50 (MDA-MB-231 breast): 123 nM | TGI (MDA-MB-231 breast): 23800 nM | TGI (MALME-3M melanoma): 1730 nM | GI50 (U251 glioblastoma): 1770 nM | TGI (U251 glioblastoma): 30100 nM | GI50 (HCT-15 colon): 205 nM | TGI (HCT-15 colon): 10800 nM | GI50 (SF-539 CNS): 292 nM | TGI (SF-539 CNS): 1680 nM | GI50 (HCC-2998 colon): 117 nM | TGI (HCC-2998 colon): 1050 nM | GI50 (K-562 leukemia): 173 nM | TGI (K-562 leukemia): > 100000 nM | GI50 (ACHN renal): 627 nM | TGI (ACHN renal): 14900 nM | GI50 (KM12 colon): 579 nM | TGI (KM12 colon): 19300 nM | GI50 (TK-10 renal): 34.3 nM | TGI (TK-10 renal): 989 nM | GI50 (MDA-MB-468 breast): 72.1 nM | TGI (MDA-MB-468 breast): 919 nM | GI50 (HS 578T breast): 51.4 nM | TGI (HS 578T breast): 1280 nM | GI50 (UACC-62 melanoma): 37.8 nM | TGI (UACC-62 melanoma): 1270 nM | GI50 (A498 renal): 283 nM | TGI (A498 renal): 2830 nM | GI50 (CCRF-CEM leukemia): 75.8 nM | TGI (CCRF-CEM leukemia): 2790 nM | GI50 (SNB-19 CNS): 554 nM | TGI (SNB-19 CNS): > 100000 nM | GI50 (HCT-116 colon): 552 nM | TGI (HCT-116 colon): 23100 nM | GI50 (OVCAR-3 ovarian): 116 nM | TGI (OVCAR-3 ovarian): 10300 nM | GI50 (M14 melanoma): 209 nM | TGI (M14 melanoma): 51900 nM | GI50 (OVCAR-5 ovarian): 525 nM | TGI (OVCAR-5 ovarian): 27400 nM | GI50 (SW-620 colon): 4750 nM | TGI (SW-620 colon): 73900 nM | GI50 (UO-31 renal): 323 nM | TGI (UO-31 renal): 13400 nM | GI50 (PC-3 prostate): 467 nM | TGI (PC-3 prostate): > 100000 nM | GI50 (MCF7 breast): 15.9 nM | TGI (MCF7 breast): 3130 nM | GI50 (SK-OV-3 ovarian): 445 nM | TGI (SK-OV-3 ovarian): 9820 nM | GI50 (SF-268 CNS): 1470 nM | TGI (SF-268 CNS): 27000 nM | GI50 (UACC-257 melanoma): 219 nM | TGI (UACC-257 melanoma): 9840 nM | GI50 (RPMI-8226 leukemia): 12 nM | TGI (RPMI-8226 leukemia): 152 nM | GI50 (SK-MEL-28 melanoma): 699 nM | TGI (SK-MEL-28 melanoma): > 100000 nM | GI50 (HOP-62 NSCLC): 228 nM | TGI (HOP-62 NSCLC): 9580 nM | GI50 (HL-60(TB) leukemia): 16.1 nM | TGI (HL-60(TB) leukemia): 142 nM | GI50 (MOLT-4 leukemia): 103 nM | TGI (MOLT-4 leukemia): 1470 nM | GI50 (SN12C renal): 1040 nM | TGI (SN12C renal): > 100000 nM | GI50 (NCI-H23 lung): 366 nM | TGI (NCI-H23 lung): 6370 nM | GI50 (DU-145 prostate): 2400 nM | TGI (DU-145 prostate): > 100000 nM

Reference: PubChem BioAssay (NCI)
